Values joined by “and” are separate entries in the source; they are usually repeats but may differ in a detail not shown here. Equal entries are not always repeated.
Columns and labels:
HepaRG cells = assay: RT-qPCR mRNA expression in differentiated HepaRG cells
Description: HepaRG cells from Biopredic (Rennes, France) were cultivated and differentiated on the 12-well plates. […] Several batches of HepaRG KO CAR (CAR Knockout HepaRG™ Cells, MTOX1012-1VL, RRID:CVCL_B6AA) and PXR Knockout HepaRG™ Cells, MTOX1011-1VL, RRID:CVCL_B6AS) cells have been obtained from Sigma-Aldrich/Merck (Darmstadt, Germany) and cultivated according to the provider’s protocols. […] Experiments with HepaRG KO PXR and HepaRG KO CAR cells have been performed in duplicates at least in two independent experiments.
RT-qPCR was used to examine gene expression in 2D and 3D PHH, HepaRG cells, or in mouse liver or intestine (ileum) samples as we have described before[60]–[62].
All qRT-qPCR experiments including Trizol reagent (Life Technologies) total RNA isolation, reverse-transcription using a random hexaprimer, and the MMLV Reverse Transcriptase Kit (ThermoFisher Scientific) we have described before^19. qPCR was performed using TaqMan Fast Advanced Master Mix with TaqMan probes (ThermoFisher Scientific). […] The delta-delta method was used for gene expression quantification normalized to at least two reference genes. Three technical replicates were used for each reaction considering the MIQE guidelines. Data are presented as fold induction to vehicle-treated cells/animals.

GRα = GRα (Homo sapiens, UniProt P04150); assay: Luciferase reporter gene assay GRα, HepG2; conditions: ligand: Dexamethasone 100 nM
Description: (§1) Gal4-LBD constructs of tested nuclear receptors have been used together with pGL4.31[luc2P/GAL4UAS/Hygro] luciferase reporter construct and pRL-TK Renilla expression vector (both from Promega, Hercules, USA) in HepG2 cells transfected with Lipofectamine 2000 or 3000 reagents. For GRα and FXR receptors, full-length expression vectors have been used with pGRE-luc or pFXRE-luc luciferase constructs. For the aryl hydrocarbon receptor (AhR), p1A1-luc construct was used with only pRL-TK vector for transfection normalization. A dual reporter assay (Promega, Hercules, USA) was used to analyze both firefly and Renilla luciferase activities.
(§2) Gal4-LBD constructs of tested nuclear receptors have been used together with pGL5-luc luciferase reporter construct and pRL-TK Renilla expression vector in HepG2 cells transfected with Lipofectamine 2000 or 3000 reagents. For GRα and FXR receptors, full-length expression vectors have been used with pGRE-luc or pFXRE-luc luciferase constructs. For the aryl hydrocarbon receptor (AhR), p1A1-luc construct was used with only pRL-TK vector for transfection normalization. […] Bars represent means±S.D. (n=3).

LXRβ = LXRβ (Homo sapiens, UniProt P55055); assay: Luciferase reporter gene assay LXRβ, HepG2
Description: as §1, §2

[1] = test system: 3D primary human hepatocyte spheroids; assay: ATP production and spheroid size in 3D PHH spheroids; format: cell-based
Method: Briefly, PHHs were cultivated for 6 days to generate compact spheroids by spontaneous self-aggregation and then half of PHH medium was exchanged for FBS-free PHH medium. 3D PHHs were treated with MI-883 (5 μM) commenced from day 8 within a time range of 8–120 h (time points were 8, 12, 24, 48, 72, and 120 h). Conditioned FBS-free PHH medium was changed every 2–3 days of the treatment. […] Data are presented as the mean ± SD of fold change expression gained from 3D spheroids of three different donors. ATP assay has been performed as described.

[2] = single agent 5: MI-883 5, Rif (5 μM) alone

GRα, sequence (P04150 whole entry): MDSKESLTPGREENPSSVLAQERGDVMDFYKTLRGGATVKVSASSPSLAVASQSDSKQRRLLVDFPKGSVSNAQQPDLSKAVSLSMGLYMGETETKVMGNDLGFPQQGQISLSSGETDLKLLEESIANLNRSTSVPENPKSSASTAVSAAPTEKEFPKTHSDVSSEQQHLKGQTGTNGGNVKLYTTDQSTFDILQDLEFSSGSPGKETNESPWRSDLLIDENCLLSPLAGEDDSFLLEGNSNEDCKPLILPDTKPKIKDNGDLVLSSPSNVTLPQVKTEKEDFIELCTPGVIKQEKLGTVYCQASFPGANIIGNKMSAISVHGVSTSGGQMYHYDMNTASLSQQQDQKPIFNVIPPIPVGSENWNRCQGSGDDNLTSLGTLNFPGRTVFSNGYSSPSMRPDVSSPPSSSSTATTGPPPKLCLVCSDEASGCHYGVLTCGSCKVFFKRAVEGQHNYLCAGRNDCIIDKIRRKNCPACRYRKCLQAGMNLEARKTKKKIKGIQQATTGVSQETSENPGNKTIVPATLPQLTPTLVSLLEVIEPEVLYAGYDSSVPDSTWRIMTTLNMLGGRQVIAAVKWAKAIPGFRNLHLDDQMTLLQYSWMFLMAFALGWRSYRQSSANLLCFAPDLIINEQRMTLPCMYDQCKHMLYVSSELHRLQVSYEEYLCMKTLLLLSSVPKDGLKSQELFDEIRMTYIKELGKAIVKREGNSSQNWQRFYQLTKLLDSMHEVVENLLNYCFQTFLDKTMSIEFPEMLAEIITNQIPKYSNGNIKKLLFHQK
LXRβ, sequence (P55055 222-460 limits assumed): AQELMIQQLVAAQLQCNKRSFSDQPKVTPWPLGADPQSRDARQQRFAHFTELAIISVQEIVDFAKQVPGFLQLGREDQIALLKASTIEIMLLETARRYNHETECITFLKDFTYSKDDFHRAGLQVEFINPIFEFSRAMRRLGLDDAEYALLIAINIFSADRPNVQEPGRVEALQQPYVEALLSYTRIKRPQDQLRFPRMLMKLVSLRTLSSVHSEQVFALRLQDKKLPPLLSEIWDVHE

NC(=O)c1cc(Cn2cc(-c3c(-c4ccc(Cl)cc4)nc4cc(F)ccn34)nn2)ccc1Cl [MI-883, 2-chloro-5-((4-(2-(4-chlorophenyl)-7-fluoroimidazo[1,2-a]pyridin-3-yl)-1H-1,2,3-triazol-1-yl)methyl)benzamide]
INSIG1 mRNA in HepaRG cells (HepaRG cells): significantly upregulated
LDLR mRNA in HepaRG cells (HepaRG cells): significant PXR-dependent upregulation
SREBF1 mRNA expression in HepaRG / KO cells (HepaRG cells): CAR-dependent downregulation
SREBF2 mRNA expression in HepaRG cells (HepaRG cells): no significant effect
HMGCR expression relative to control (replicates) (HepaRG cells; MI-883 1 μM): 0.8473 and 0.6697 and 1.095 and 1.161 and 1.262 and 0.6816
HMGCS2 expression relative to control (replicates) (HepaRG cells; MI-883 1 μM): 0.9842 and 0.7188 and 1.1212 and 1.322
PCSK9 expression relative to control (replicates) (HepaRG cells; MI-883 1 μM): 0.9984 and 0.8995 and 1.064 and 1.124
HMGCR expression relative to control (replicates) (HepaRG cells; MI-883 1 μM + Rif (5 μM)): 1.453 and 0.9465 and 0.9544 and 1.191 and 1.542 and 0.8007
HMGCS2 expression relative to control (replicates) (HepaRG cells; MI-883 1 μM + Rif (5 μM)): 0.681 and 1.013 and 0.6433 and 0.4816
PCSK9 expression relative to control (replicates) (HepaRG cells; MI-883 1 μM + Rif (5 μM)): 0.8085 and 0.8006 and 1.133 and 0.9198
HMGCR expression relative to control (replicates) (HepaRG cells; MI-883 5 μM): 1.295 and 1.166 and 1.377 and 1.27 and 0.8404
HMGCS2 expression relative to control (replicates) (HepaRG cells; MI-883 5 μM): 0.5911 and 1.022
PCSK9 expression relative to control (replicates) (HepaRG cells; MI-883 5 μM): 0.6066 and 1.012
HMGCR expression relative to control (replicates) (HepaRG cells; MI-883 5 μM + Rif (5 μM)): 1.005 and 1.538 and 1.592 and 1.152 and 1.312
HMGCS2 expression relative to control (replicates) (HepaRG cells; MI-883 5 μM + Rif (5 μM)): 0.8846 and 0.5305
PCSK9 expression relative to control (replicates) (HepaRG cells; MI-883 5 μM + Rif (5 μM)): 1.035 and 0.636
HMGCR expression relative to control (replicates) (HepaRG cells; MI-883 10 μM): 1.683 and 0.9974 and 1.042 and 1.481
HMGCS2 expression relative to control (replicates) (HepaRG cells; MI-883 10 μM): 0.4009 and 0.6268 and 0.831 and 0.8846
PCSK9 expression relative to control (replicates) (HepaRG cells; MI-883 10 μM): 0.6175 and 0.9465 and 1.014 and 0.9985
HMGCR expression relative to control (replicates) (HepaRG cells; MI-883 10 μM + Rif (5 μM)): 1.336 and 1.4868 and 1.027 and 1.993
HMGCS2 expression relative to control (replicates) (HepaRG cells; MI-883 10 μM + Rif (5 μM)): 0.9594 and 1.125 and 0.477 and 0.8873
PCSK9 expression relative to control (replicates) (HepaRG cells; MI-883 10 μM + Rif (5 μM)): 1.314 and 0.9884 and 1.015 and 0.8211
HMGCR expression relative to control (replicates) (HepaRG cells; MI-883 20 μM): 1.186 and 1.442 and 1.1738
HMGCS2 expression relative to control (replicates) (HepaRG cells; MI-883 20 μM): 0.7901 and 0.8336 and 1.102
PCSK9 expression relative to control (replicates) (HepaRG cells; MI-883 20 μM): 0.9308 and 1.156 and 1.11
HMGCR expression relative to control (replicates) (HepaRG cells; MI-883 20 μM + Rif (5 μM)): 0.8382 and 1.516 and 1.756
HMGCS2 expression relative to control (replicates) (HepaRG cells; MI-883 20 μM + Rif (5 μM)): 1.0412 and 1.1415 and 0.9223
PCSK9 expression relative to control (replicates) (HepaRG cells; MI-883 20 μM + Rif (5 μM)): 1.334 and 1.4007 and 1.046
CYP7A1 mRNA fold (Fig. 3f,g sheet), replicates (HepaRG cells; MI-883 1): 0.5746 and 0.6713 and 0.8972 and 0.7445
INSIG1 mRNA fold (Fig. 3f,g sheet), replicates (HepaRG cells; MI-883 1): 1.005 (2×) and 0.8339
LDLR mRNA fold (Fig. 3f,g sheet), replicates (HepaRG cells; MI-883 1): 1.161 and 1.262 and 0.9041 and 0.8572
SREBF1 mRNA fold (Fig. 3f,g sheet), replicates (HepaRG cells; MI-883 1): 0.7942 and 0.8996 and 0.7218
SREBF2 mRNA fold (Fig. 3f,g sheet), replicates (HepaRG cells; MI-883 1): 0.6439 and 0.7635 and 0.7748 and 1.065 and 0.7449 and 1.037
mRNA fold, Fig. 3b sheet, first block (CYP3A4), replicates (HepaRG cells; MI-883 1 (µM), 24 h): 0.8362 and 0.801 and 0.9683 and 1.172 and 0.7446
mRNA fold, Fig. 3b sheet, second block (gene not given; CYP2B6), replicates (HepaRG cells; MI-883 1 (µM), 24 h): 2.928 and 2.816 and 2.017 and 3.044 and 1.065
mRNA fold, Fig. 3b sheet, first block (CYP3A4), replicates (HepaRG cells; MI-883 1 + Rif (5 μM)): 1.353 and 3.215 and 5.541
mRNA fold, Fig. 3b sheet, second block (CYP2B6), replicates (HepaRG cells; MI-883 1 + Rif (5 μM)): 2.0016 and 2.546 and 5.3
CYP7A1 mRNA fold (Fig. 3f,g sheet), replicates (HepaRG cells; MI-883 5): 0.5588 and 0.4759 and 0.4175
INSIG1 mRNA fold (Fig. 3f,g sheet), replicates (HepaRG cells; MI-883 5): 1.268 and 1.368 and 1.1831
LDLR mRNA fold (Fig. 3f,g sheet), replicates (HepaRG cells; MI-883 5): 1.377 and 1.27 and 1.084
SQLE mRNA fold (Fig. 3f,g sheet), replicates (HepaRG cells; MI-883 5): 1.181 (2×) and 1.026
SREBF1 mRNA fold (Fig. 3f,g sheet), replicates (HepaRG cells; MI-883 5): 0.6652 and 0.6777 and 0.7568
SREBF2 mRNA fold (Fig. 3f,g sheet), replicates (HepaRG cells; MI-883 5): 0.5404 and 1.004 and 0.7053
mRNA fold, Fig. 3b sheet, first block (CYP3A4), replicates (HepaRG cells; MI-883 5 + Rif (5 μM)): 1.354 and 1.7483 and 1.162
mRNA fold, Fig. 3b sheet, second block (CYP2B6), replicates (HepaRG cells; MI-883 5 + Rif (5 μM)): 2.182 and 1.817
CYP7A1 mRNA fold (Fig. 3f,g sheet), replicates (HepaRG cells; MI-883 10): 0.4275 and 0.3155 and 0.5022 and 0.4393
INSIG1 mRNA fold (Fig. 3f,g sheet), replicates (HepaRG cells; MI-883 10): 1.223 and 1.042 and 1.225 and 1.172
LDLR mRNA fold (Fig. 3f,g sheet), replicates (HepaRG cells; MI-883 10): 1.481 and 1.183
SQLE mRNA fold (Fig. 3f,g sheet), replicates (HepaRG cells; MI-883 10): 1.043 and 1.272 and 0.888 and 1.111 and 1.1255
SREBF1 mRNA fold (Fig. 3f,g sheet), replicates (HepaRG cells; MI-883 10): 0.5595 and 0.8022 (2×) and 0.6597
SREBF2 mRNA fold (Fig. 3f,g sheet), replicates (HepaRG cells; MI-883 10): 0.6518 and 0.837 and 1.166 and 1.224 and 0.9179 and 0.9421
mRNA fold, Fig. 3b sheet, first block (CYP3A4), replicates (HepaRG cells; MI-883 10): 0.3642 and 0.6511 and 0.7047 and 0.8281 and 0.7972 and 0.5808
mRNA fold, Fig. 3b sheet, second block (CYP2B6), replicates (HepaRG cells; MI-883 10): 2.037 and 2.07 and 1.475 and 2.671 and 1.239 and 0.7631
mRNA fold, Fig. 3b sheet, first block (CYP3A4), replicates (HepaRG cells; MI-883 10 + Rif (5 μM)): 0.875 and 1.224 and 1.6089 and 0.7778
mRNA fold, Fig. 3b sheet, second block (CYP2B6), replicates (HepaRG cells; MI-883 10 + Rif (5 μM)): 1.519 and 3.467 and 2.287 and 1.0661
CYP7A1 mRNA fold (Fig. 3f,g sheet), replicates (HepaRG cells; MI-883 20): 0.3598 and 0.7856
INSIG1 mRNA fold (Fig. 3f,g sheet), replicates (HepaRG cells; MI-883 20): 1.146 and 1.273
LDLR mRNA fold (Fig. 3f,g sheet), replicates (HepaRG cells; MI-883 20): 1.442 and 1.216 and 1.519
SQLE mRNA fold (Fig. 3f,g sheet), replicates (HepaRG cells; MI-883 20): 1.646 and 1.048
SREBF1 mRNA fold (Fig. 3f,g sheet), replicates (HepaRG cells; MI-883 20): 0.7299 and 0.7553
SREBF2 mRNA fold (Fig. 3f,g sheet), replicates (HepaRG cells; MI-883 20): 1.072 and 1.4 and 1.1431
mRNA fold, Fig. 3b sheet, first block (CYP3A4), replicates (HepaRG cells; MI-883 20): 0.6466 and 0.6905 and 0.8398 and 0.439
mRNA fold, Fig. 3b sheet, second block (CYP2B6), replicates (HepaRG cells; MI-883 20): 1.395 and 1.4687 and 2.208 and 1.5457
mRNA fold, Fig. 3b sheet, first block (CYP3A4), replicates (HepaRG cells; MI-883 20 + Rif (5 μM)): 0.5897 and 1.016
mRNA fold, Fig. 3b sheet, second block (CYP2B6), replicates (HepaRG cells; MI-883 20 + Rif (5 μM)): 0.9269 and 2.43 and 1.46
CYP7A1 mRNA in HepaRG cells (HepaRG cells; MI-883: in the absence and presence of rifampicin): significant downregulation
rifampicin induction of SQLE mRNA in HepaRG cells (HepaRG cells; MI-883 at 1 μM, SPA70): abrogated
CYP2B6 mRNA, RT-qPCR, HepaRG (Fig. 1f), replicates (HepaRG cells; Phenobarbital 500 μM, CITCO 1 μM, MI 883 1 μM, ctrl = 1): 4.75 and 4.15 and 4.1
ABCC4 and UGT1A1 genes in HepaRG cells (HepaRG cells; Supplementary Fig. 10): upregulated
mRNA fold, Fig. 3b sheet, first block (CYP3A4), replicates (HepaRG cells; [2]): 0.6927 and 0.6641 and 0.6779
mRNA fold, Fig. 3b sheet, second block (CYP2B6), replicates (HepaRG cells; [2]): 3.953 and 2.541 and 3.216
NRs assays: GRa (relative to ctrl, replicates) (GRα): 0.97 (2×) and 1.03
NRs assays: LXRbeta (relative to ctrl, replicates) (LXRβ): 0.51 and 0.81 and 0.55
spheroid size or ATP production in 3D PHHs ([1]; 5 μM, 72 h): did not see any decrease
Fig. 7c readout relative to control (control 100) ([1]; 5 uM, three replicates, control = 100): 92.8 and 153.7 and 124.1

— paper PMC11802874, “The hypolipidemic effect of MI-883, the combined CAR agonist/ PXR antagonist, in diet-induced hypercholesterolemia model” (Nature Communications, 2025)
